# Patent US12685761B2, “VIP and VIP agonists, nanoparticles, and uses in inflammatory T-cell mediated disease” (Emory University, priority 2018, dated 2026)
# Test system: VIP-KO B6 recipients
# Test: Short-term VIP administration in allo-BMT GvHD lethality model (FIG. 4)
# Assay type: in vivo, mice
# Conditions: VIP 10 μgram/day vs PBS from day 0 to day 10; lethally irradiated VIP-KO B6 recipients infused with 5M TCD BM plus 3×10^6 B10.BR T cells
# Description: Lethally irradiated WT and VIP-KO B6 recipients were infused with 5M TCD BM plus 3×10^6 B10.BR T cells.
substance,measurement,value
vasoactive intestinal peptide [VIP],acute GvHD mortality after allo-BMT,rescued VIP-KO recipients from acute GvHD mortality
